Laboratory results reported in PubChem BioAssay (NCI).
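Protocol summary: plate cells (96-well), add compound at 5 concentrations, incubate 48 h, interpolate endpoints linearly. Definition used: TGI = concentration required for complete inhibition of growth.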

How the values were obtained:
Test in all cases: NCI tumour cell line growth inhibition, 48 h
KM20L2 colon = test system: KM20L2 colon
RPMI-8226 leukemia = test system: RPMI-8226 leukemia
SW-620 colon = test system: SW-620 colon
NCI-H23 lung = test system: NCI-H23 lung
UACC-257 melanoma = test system: UACC-257 melanoma
HCC-2998 colon = test system: HCC-2998 colon
HL-60(TB) leukemia = test system: HL-60(TB) leukemia
HT29 colon = test system: HT29 colon
OVCAR-5 ovarian = test system: OVCAR-5 ovarian
SK-MEL-2 melanoma = test system: SK-MEL-2 melanoma
SR leukemia = test system: SR leukemia
786-0 renal = test system: 786-0 renal
CAKI-1 renal = test system: CAKI-1 renal
MALME-3M melanoma = test system: MALME-3M melanoma
SF-268 CNS = test system: SF-268 CNS
ACHN renal = test system: ACHN renal
SK-MEL-28 melanoma = test system: SK-MEL-28 melanoma
TK-10 renal = test system: TK-10 renal
SNB-19 CNS = test system: SNB-19 CNS
COLO 205 colon = test system: COLO 205 colon
HCT-116 colon = test system: HCT-116 colon
A549 NSCLC = test system: A549 NSCLC
DMS 114 small cell lung = test system: DMS 114 small cell lung
SK-OV-3 ovarian = test system: SK-OV-3 ovarian
A498 renal = test system: A498 renal
NCI-H522 lung = test system: NCI-H522 lung
KM12 colon = test system: KM12 colon
LOX IMVI melanoma = test system: LOX IMVI melanoma
HCT-15 colon = test system: HCT-15 colon
DLD-1 colon = test system: DLD-1 colon
U251 CNS = test system: U251 CNS
XF 498 CNS = test system: XF 498 CNS
OVCAR-4 ovarian = test system: OVCAR-4 ovarian
OVCAR-8 ovarian = test system: OVCAR-8 ovarian
DMS 273 small cell lung = test system: DMS 273 small cell lung
SN12C renal = test system: SN12C renal
HOP-18 NSCLC = test system: HOP-18 NSCLC
M19-MEL melanoma = test system: M19-MEL melanoma
MOLT-4 leukemia = test system: MOLT-4 leukemia
CCRF-CEM leukemia = test system: CCRF-CEM leukemia
EKVX NSCLC = test system: EKVX NSCLC
K-562 leukemia = test system: K-562 leukemia
NCI-H460 lung = test system: NCI-H460 lung
LXFL 529 NSCLC = test system: LXFL 529 NSCLC
HOP-92 NSCLC = test system: HOP-92 NSCLC
SK-MEL-5 melanoma = test system: SK-MEL-5 melanoma
NCI-H226 lung = test system: NCI-H226 lung
UACC-62 melanoma = test system: UACC-62 melanoma
SF-295 CNS = test system: SF-295 CNS
M14 melanoma = test system: M14 melanoma
OVCAR-3 ovarian = test system: OVCAR-3 ovarian
SNB-75 CNS = test system: SNB-75 CNS
HOP-62 NSCLC = test system: HOP-62 NSCLC
SF-539 CNS = test system: SF-539 CNS
IGROV1 ovarian = test system: IGROV1 ovarian

`CN(C)N=Nc1cn[nH]c1C(N)=O` gave a TGI (KM20L2 colon) greater than 100 µM, a TGI (RPMI-8226 leukemia) greater than 100 µM and a TGI (SW-620 colon) greater than 100 µM. The TGI (NCI-H23 lung) was greater than 100 µM, the TGI (UACC-257 melanoma) was greater than 100 µM and the TGI (HCC-2998 colon) was greater than 100 µM. The TGI (HL-60(TB) leukemia) was greater than 100 µM, the TGI (HT29 colon) was greater than 100 µM and the TGI (OVCAR-5 ovarian) was greater than 100 µM. The TGI (SK-MEL-2 melanoma) was greater than 100 µM, the TGI (SR leukemia) was greater than 100 µM and the TGI (786-0 renal) was greater than 100 µM. For the same compound, the TGI (CAKI-1 renal) was greater than 100 µM, the TGI (MALME-3M melanoma) was greater than 100 µM and the TGI (SF-268 CNS) was greater than 100 µM. The TGI (ACHN renal) was greater than 100 µM, the TGI (SK-MEL-28 melanoma) was greater than 100 µM and the TGI (TK-10 renal) was greater than 100 µM. For the same compound, the TGI (SNB-19 CNS) was greater than 100 µM, the TGI (COLO 205 colon) was greater than 100 µM and the TGI (HCT-116 colon) was greater than 100 µM. For the same compound, the TGI (A549 NSCLC) was greater than 100 µM, the TGI (DMS 114 small cell lung) was greater than 100 µM and the TGI (SK-OV-3 ovarian) was greater than 100 µM. It also gave a TGI (A498 renal) greater than 100 µM, a TGI (NCI-H522 lung) greater than 100 µM and a TGI (KM12 colon) greater than 100 µM. For the same compound, the TGI (LOX IMVI melanoma) was greater than 100 µM, the TGI (HCT-15 colon) was greater than 100 µM and the TGI (DLD-1 colon) was greater than 100 µM. The TGI (U251 CNS) was greater than 100 µM, the TGI (XF 498 CNS) was greater than 100 µM and the TGI (OVCAR-4 ovarian) was greater than 100 µM. The TGI (OVCAR-8 ovarian) was greater than 100 µM, the TGI (DMS 273 small cell lung) was greater than 100 µM and the TGI (SN12C renal) was greater than 100 µM. For the same compound, the TGI (HOP-18 NSCLC) was greater than 100 µM, the TGI (M19-MEL melanoma) was greater than 100 µM and the TGI (MOLT-4 leukemia) was greater than 100 µM. It also gave a TGI (CCRF-CEM leukemia) greater than 100 µM, a TGI (EKVX NSCLC) greater than 100 µM and a TGI (K-562 leukemia) greater than 100 µM. The TGI (NCI-H460 lung) was greater than 100 µM, the TGI (LXFL 529 NSCLC) was greater than 100 µM and the TGI (HOP-92 NSCLC) was greater than 100 µM. The TGI (SK-MEL-5 melanoma) was greater than 100 µM, the TGI (NCI-H226 lung) was greater than 100 µM and the TGI (UACC-62 melanoma) was 93.3 µM. The TGI (SF-295 CNS) was greater than 100 µM, the TGI (M14 melanoma) was greater than 100 µM and the TGI (OVCAR-3 ovarian) was greater than 100 µM. The TGI (SNB-75 CNS) was greater than 100 µM, the TGI (HOP-62 NSCLC) was greater than 100 µM and the TGI (SF-539 CNS) was greater than 100 µM. It also gave a TGI (IGROV1 ovarian) greater than 100 µM.
